The source of these data is ChEMBL document CHEMBL1212924 (J Med Chem, 2010).

Where only a bound is given, the exact number is not on record here.

Series [1] can be described thus: in vitro. The following applies: human, liver microsomes.
Description: Half life in human liver microsome at 2 mg/mL
For series [2], the target named is CYP2C9 (Homo sapiens, UniProt P11712). Briefly: Inhibition of CYP2C9 at 10 uM. The format is ADME.
Series [3] has as its target Serine/threonine-protein kinase MRCK alpha (Homo sapiens, UniProt Q5VT25). As to the kind of experiment: Inhibition of MRCKalpha.
Series [4] deals with CYP2D6 (Homo sapiens, UniProt P10635). Briefly: Inhibition of CYP2D6 at 10 uM. The format is ADME.
The target of series [5] is Rho-associated protein kinase 1 (Homo sapiens, UniProt Q13464).
Series [6] deals with Mitogen-activated protein kinase 10 (Homo sapiens, UniProt P53779).
Series [7] is described as follows: Inhibition of p38.
In series [8] the target is CYP3A4 (Homo sapiens, UniProt P08684). As to the kind of experiment: Inhibition of CYP3A4 at 10 uM. The format is ADME.
For series [9], the target named is T1, CYP1A2 (Homo sapiens, UniProt P05177).
T1 sequence (P05177 whole entry): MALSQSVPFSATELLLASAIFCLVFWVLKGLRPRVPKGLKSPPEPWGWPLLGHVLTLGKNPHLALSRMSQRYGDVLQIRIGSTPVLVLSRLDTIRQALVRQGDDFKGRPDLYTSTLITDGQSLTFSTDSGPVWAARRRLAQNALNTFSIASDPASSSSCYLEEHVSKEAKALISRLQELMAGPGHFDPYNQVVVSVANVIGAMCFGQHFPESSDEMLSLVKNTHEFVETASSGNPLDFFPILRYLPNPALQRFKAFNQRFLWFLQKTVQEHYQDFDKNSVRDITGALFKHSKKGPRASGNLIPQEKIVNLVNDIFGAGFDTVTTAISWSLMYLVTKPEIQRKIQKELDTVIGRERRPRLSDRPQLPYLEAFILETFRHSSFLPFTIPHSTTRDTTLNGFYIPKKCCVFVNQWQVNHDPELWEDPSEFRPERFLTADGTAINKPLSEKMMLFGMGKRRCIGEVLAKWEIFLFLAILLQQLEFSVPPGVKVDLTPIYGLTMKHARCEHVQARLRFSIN
Briefly: Inhibition of CYP1A2 at 10 uM. The format is ADME.

The target in series [10] is Rho-associated protein kinase 2 (Homo sapiens, UniProt O75116).
Series [11] in a line: Clearance in rat at 1 mg/kg, iv and 2 mg/kg, po. The format is ADME, organism-based. The following applies: in vivo.
Series [12] can be described thus: Volume of distribution in rat at 1 mg/kg, iv and 2 mg/kg, po. The format is ADME, organism-based. The following applies: in vivo.
A short description of series [13]: Oral bioavailability in rat at 2 mg/kg. The format is ADME, organism-based. The note with it: in vivo.
Series [14] in a line: Half life in rat at 1 mg/kg, iv and 2 mg/kg, po. The format is ADME, organism-based. The following applies: in vivo.
Series [15] in a line: Cmax in rat at 2 mg/kg, po. The format is ADME, organism-based. More on the design: dose 2 mg/kg, route oral. The note with it: in vivo.

Sequence of CYP2D6 (P10635 whole entry): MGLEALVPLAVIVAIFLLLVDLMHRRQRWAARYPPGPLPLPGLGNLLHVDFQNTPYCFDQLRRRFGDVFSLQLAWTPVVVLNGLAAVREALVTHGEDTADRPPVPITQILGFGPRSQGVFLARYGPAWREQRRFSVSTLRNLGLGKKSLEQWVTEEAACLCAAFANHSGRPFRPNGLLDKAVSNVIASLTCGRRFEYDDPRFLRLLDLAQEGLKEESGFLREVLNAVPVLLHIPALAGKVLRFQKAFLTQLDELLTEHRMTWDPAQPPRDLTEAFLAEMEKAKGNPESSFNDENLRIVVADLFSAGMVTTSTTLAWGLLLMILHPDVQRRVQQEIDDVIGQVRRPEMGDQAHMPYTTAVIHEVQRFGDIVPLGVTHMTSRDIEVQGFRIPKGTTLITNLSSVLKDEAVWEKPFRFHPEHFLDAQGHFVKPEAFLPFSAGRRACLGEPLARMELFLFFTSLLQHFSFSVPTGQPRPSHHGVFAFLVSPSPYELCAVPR
Sequence of Rho-associated protein kinase 1 (Q13464 whole entry): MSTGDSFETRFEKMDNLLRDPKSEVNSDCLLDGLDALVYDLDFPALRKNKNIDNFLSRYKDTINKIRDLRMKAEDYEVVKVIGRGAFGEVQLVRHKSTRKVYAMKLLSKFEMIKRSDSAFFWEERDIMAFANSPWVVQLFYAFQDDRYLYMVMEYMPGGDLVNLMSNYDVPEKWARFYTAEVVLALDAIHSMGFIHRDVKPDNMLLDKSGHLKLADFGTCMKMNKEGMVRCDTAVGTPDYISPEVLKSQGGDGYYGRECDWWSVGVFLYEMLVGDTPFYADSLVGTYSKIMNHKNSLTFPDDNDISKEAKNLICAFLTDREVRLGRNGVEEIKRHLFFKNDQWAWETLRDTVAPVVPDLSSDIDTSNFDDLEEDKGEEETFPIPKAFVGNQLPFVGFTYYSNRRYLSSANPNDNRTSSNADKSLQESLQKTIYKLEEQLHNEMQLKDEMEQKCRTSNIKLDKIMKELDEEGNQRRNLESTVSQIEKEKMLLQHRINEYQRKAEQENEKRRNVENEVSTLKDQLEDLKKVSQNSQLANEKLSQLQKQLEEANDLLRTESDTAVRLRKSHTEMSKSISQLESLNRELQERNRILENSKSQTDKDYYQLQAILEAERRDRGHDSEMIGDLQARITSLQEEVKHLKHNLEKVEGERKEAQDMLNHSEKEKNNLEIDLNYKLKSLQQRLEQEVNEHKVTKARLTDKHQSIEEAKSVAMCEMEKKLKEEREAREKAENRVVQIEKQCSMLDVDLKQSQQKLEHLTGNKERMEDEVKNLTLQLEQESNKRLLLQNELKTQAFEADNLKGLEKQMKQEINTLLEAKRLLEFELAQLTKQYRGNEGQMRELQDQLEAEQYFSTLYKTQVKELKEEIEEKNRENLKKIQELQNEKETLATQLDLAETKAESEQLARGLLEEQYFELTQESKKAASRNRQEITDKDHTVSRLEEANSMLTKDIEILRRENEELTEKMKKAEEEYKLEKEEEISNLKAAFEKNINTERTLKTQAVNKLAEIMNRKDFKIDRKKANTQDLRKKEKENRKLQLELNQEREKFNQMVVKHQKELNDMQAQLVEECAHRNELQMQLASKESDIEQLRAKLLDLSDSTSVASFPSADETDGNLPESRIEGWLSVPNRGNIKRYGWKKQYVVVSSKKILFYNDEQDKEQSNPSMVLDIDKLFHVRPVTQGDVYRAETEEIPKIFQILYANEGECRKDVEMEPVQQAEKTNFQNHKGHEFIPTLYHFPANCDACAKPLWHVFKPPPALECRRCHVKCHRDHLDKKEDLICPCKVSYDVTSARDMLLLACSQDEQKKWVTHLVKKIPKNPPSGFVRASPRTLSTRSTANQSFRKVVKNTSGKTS
Sequence of Mitogen-activated protein kinase 10 (P53779 whole entry): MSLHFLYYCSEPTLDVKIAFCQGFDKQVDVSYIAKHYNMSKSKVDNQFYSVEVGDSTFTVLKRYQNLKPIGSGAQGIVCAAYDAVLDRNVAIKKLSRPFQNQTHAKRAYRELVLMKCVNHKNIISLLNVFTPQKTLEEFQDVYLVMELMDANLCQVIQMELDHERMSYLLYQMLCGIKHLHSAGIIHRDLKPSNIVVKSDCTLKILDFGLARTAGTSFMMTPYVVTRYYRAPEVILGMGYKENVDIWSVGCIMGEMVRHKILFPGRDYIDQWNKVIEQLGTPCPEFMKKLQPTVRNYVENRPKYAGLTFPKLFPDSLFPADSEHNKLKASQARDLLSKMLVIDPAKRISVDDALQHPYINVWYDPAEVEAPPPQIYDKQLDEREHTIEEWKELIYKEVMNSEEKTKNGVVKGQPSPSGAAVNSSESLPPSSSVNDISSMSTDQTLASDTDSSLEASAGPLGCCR
Sequence of Serine/threonine-protein kinase MRCK alpha (Q5VT25 whole entry): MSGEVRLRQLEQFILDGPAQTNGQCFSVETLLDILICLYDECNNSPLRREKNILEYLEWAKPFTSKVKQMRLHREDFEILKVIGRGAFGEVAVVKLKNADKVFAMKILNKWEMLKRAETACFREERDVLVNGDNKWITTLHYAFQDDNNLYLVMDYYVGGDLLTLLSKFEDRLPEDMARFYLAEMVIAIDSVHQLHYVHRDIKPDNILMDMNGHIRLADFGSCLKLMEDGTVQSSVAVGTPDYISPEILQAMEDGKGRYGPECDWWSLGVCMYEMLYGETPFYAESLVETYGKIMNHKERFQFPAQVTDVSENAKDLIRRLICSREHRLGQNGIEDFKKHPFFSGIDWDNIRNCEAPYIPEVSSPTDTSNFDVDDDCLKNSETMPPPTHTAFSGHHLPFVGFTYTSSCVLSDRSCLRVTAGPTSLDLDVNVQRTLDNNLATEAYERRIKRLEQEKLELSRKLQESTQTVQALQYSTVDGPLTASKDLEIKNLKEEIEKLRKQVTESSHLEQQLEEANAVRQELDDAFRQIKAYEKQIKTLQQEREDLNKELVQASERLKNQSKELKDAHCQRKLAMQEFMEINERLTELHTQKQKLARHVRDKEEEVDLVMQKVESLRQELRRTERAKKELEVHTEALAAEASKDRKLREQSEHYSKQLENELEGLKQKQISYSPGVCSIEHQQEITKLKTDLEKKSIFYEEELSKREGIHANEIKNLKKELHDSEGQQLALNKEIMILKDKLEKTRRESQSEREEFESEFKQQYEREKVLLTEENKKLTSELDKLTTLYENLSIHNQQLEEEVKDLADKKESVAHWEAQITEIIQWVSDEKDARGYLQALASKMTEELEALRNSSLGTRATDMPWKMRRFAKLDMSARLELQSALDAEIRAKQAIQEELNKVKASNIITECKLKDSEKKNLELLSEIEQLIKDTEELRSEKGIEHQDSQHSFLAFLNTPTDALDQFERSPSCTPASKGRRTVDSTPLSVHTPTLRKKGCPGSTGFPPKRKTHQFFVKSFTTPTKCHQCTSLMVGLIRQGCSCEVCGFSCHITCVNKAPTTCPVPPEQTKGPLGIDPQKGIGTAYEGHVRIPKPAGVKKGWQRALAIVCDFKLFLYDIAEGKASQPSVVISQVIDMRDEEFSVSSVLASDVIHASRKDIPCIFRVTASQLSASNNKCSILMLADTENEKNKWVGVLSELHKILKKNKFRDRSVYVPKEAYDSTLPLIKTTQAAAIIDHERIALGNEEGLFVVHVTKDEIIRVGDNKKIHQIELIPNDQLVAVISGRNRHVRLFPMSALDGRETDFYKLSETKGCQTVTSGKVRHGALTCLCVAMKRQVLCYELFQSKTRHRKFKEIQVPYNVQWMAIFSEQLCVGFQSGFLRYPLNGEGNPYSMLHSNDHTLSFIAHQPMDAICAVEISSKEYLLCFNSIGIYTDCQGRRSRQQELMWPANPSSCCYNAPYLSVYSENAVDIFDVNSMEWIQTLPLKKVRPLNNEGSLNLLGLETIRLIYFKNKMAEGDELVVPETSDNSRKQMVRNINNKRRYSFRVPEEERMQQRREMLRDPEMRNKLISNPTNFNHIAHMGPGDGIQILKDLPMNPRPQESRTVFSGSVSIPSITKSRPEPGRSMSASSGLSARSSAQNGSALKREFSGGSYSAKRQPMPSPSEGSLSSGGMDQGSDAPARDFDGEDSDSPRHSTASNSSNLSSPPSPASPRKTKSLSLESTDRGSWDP
Sequence of CYP3A4 (P08684 whole entry): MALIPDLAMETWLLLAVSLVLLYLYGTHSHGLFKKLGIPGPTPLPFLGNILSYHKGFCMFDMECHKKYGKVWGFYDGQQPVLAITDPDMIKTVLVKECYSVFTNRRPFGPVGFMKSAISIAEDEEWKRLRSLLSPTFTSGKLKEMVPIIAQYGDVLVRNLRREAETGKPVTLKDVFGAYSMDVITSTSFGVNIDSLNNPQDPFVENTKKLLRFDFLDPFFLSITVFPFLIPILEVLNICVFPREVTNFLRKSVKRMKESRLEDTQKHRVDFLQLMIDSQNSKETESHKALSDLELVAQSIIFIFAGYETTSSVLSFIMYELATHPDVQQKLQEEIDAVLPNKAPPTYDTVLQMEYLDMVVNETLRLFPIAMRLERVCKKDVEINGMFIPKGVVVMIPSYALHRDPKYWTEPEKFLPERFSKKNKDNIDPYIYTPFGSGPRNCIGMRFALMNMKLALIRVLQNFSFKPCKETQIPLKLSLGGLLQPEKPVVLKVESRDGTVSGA
Sequence of CYP2C9 (P11712 whole entry): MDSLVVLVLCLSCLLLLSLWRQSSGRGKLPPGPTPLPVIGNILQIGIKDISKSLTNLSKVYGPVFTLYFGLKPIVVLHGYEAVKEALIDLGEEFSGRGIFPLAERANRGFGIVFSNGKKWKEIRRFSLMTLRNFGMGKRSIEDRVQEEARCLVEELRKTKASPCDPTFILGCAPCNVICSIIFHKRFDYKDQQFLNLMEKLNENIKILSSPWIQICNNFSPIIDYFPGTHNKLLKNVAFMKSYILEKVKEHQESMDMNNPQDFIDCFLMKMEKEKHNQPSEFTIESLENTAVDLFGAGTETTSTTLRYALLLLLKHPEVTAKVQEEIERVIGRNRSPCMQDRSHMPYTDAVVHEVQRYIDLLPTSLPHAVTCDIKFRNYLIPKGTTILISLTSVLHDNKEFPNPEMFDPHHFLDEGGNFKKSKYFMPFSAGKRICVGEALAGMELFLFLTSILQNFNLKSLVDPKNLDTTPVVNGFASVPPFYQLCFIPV

As for `N[C@H](Cc1cccc(F)c1)C(=O)Nc1ccc(-c2cn[nH]c2)cc1`, the half-life in [1] was determined as 1.12 h.

Take `CCN1Cc2ccccc2C[C@@H]1C(=O)Nc1cc(F)c(-c2cn[nH]c2)cc1OCCN(C)C`: the inhibition at 10 µM was 70% in [2], 52% in [4], 39% in series [8] and -24% in series [9]. Besides, the IC50 in series [3] was 810 nM; in series [5] it was 16 nM; in series [6], greater than 20000 nM; in series [7], greater than 20000 nM. For the same compound, the half-life in series [1] came to 0.0167 h.

`COc1ccc2c(c1)C[C@@H](C(=O)Nc1ccc(-c3cn[nH]c3)cc1OCCN(C)C)NC2` came in with a half-life in [1] of 1.68 h.

`CN(C)CCOc1cc(-c2cn[nH]c2)ccc1NC(=O)[C@@H]1Cc2cc(Cl)ccc2CN1` displayed a half-life in series [1] of 0.283 h. Against the preceding compound, the half-life is about 5.9-fold lower.

On to `COc1ccc2c(c1)C[C@H](C(=O)Nc1ccc(-c3cn[nH]c3)cc1OCCN1CCCC1)NC2`, for which the half-life in [1] was found to be 1.05 h.

On to `CN(C)CCOc1cc(-c2cn[nH]c2)c(F)cc1NC(=O)[C@H]1Cc2ccccc2CN1C(=O)CN(C)C`, for which the half-life in series [1] stood at 0.233 h. Moreover, it took 775 nM to reach half-maximal inhibition in [10] (IC50).

As for `CN(C)CCOc1cc(-c2cn[nH]c2)c(F)cc1NC(=O)[C@H]1Cc2ccccc2CN1CC1CC1`, the half-life in [1] is 0.05 h; in series [14], 2.3 h. Besides, the clearance in [11] stood at 42 mL/min/kg. The same compound yielded a Vd in [12] of 7 L/kg. Besides, in series [13], the bioavailability was found to be 0%.

`COc1ccc2c(c1)C[C@H](C(=O)Nc1cc(F)c(-c3cn[nH]c3)cc1OCCN(C)C)NC2`: the half-life is 0.85 h in series [1] and 1.5 h in series [14]. For the same compound, the clearance in [11] was found to be 4.6 mL/min/kg. The compound further had a Vd in [12] of 0.49 L/kg. In series [13], the bioavailability worked out at 0.3%. The same compound registered a Cmax in [15] of 32 nM.

Consider `COc1ccc2c(c1)C[C@H](C(=O)Nc1ccc(-c3cn[nH]c3)cc1)NC2`, for which the IC50 in series [10] was 334 nM.

Consider `CCN1Cc2ccc(OC)cc2C[C@@H]1C(=O)Nc1cc(F)c(-c2cn[nH]c2)cc1OCCN(C)C`, for which the half-life in [1] is 0.183 h; in [14], 1.7 h. The compound further displayed a clearance in [11] of 130 mL/min/kg. For the same compound, in series [12], the Vd was 17 L/kg. The compound also registered a bioavailability in [13] of 0%.

Consider `CCOc1ccc2c(c1)CC(C(=O)Nc1ccc(-c3cn[nH]c3)cc1OCCN(C)C)NC2` (racemic), for which half-maximal inhibition in series [10] (IC50) required 156 nM.

In series [1], `COc1ccc2c(c1)C[C@H](C(=O)Nc1c(F)cc(-c3cn[nH]c3)cc1OCCN(C)C)NC2` showed a half-life of 1.87 h.

`COc1ccc2c(c1)C[C@H](C(=O)Nc1ccc(-c3cn[nH]c3)cc1SCCC(=O)N(C)C)NC2`: the half-life in [1] came to 0.05 h.

As to `CN(C)CCOc1cc(-c2cn[nH]c2)ccc1NC(=O)[C@H]1Cc2cc(Cl)ccc2CN1`, in series [1], the half-life was found to be 2.02 h.

In series [1], `COc1ccc2c(c1)C[C@H](C(=O)Nc1ccc(-c3cn[nH]c3)cc1SCCN(C)C)NC2` had a half-life of 0.367 h.

In the case of `CN(C)CCOc1cc(-c2cn[nH]c2)ccc1NC(=O)[C@H]1Cc2ccccc2CN1`, in series [1], the half-life is 1.63 h.

Regarding `NC(C(=O)Nc1ccc(-c2cn[nH]c2)cc1)c1ccc(Cl)cc1` (stereo unspecified), the half-life in [1] worked out at 1.4 h.

Compound `CN(C)CCOc1cc(-c2cn[nH]c2)c(F)cc1NC(=O)[C@H]1Cc2ccccc2CN1C` registered a half-life in series [1] of 0.267 h.

Take `COc1ccc2c(c1)C[C@H](C(=O)Nc1ccc(-c3cn[nH]c3)c(F)c1OCCN(C)C)NC2`: in [1], the half-life came out at 1.2 h.

Compound `COc1ccc2c(c1)C[C@H](C(=O)Nc1ccc(-c3cn[nH]c3)cc1OC1CCN(C)CC1)NC2` showed a half-life in series [1] of 1.73 h.

As to `CN(C)CCOc1cc(-c2cn[nH]c2)ccc1NC(=O)[C@@H]1Cc2ccccc2CN1`, in series [1], the half-life is 1.63 h. This half-life and that of the compound before are within 1.5-fold of each other.

The compound `COc1ccc2c(c1)CN[C@@H](C(=O)Nc1ccc(-c3cn[nH]c3)cc1OCCN(C)C)C2` gave an IC50 in [10] of 850 nM.

With `COc1ccc2c(c1)C[C@H](C(=O)Nc1ccc(-c3cn[nH]c3)cc1OCCN(C)C)NC2`, the inhibition at 10 µM in [2] was 31%; in [4] it was 40%; in [8], -3%; in [9] it was 21%. For the same compound, the IC50 was 5350 nM in series [3], 48 nM in [5], greater than 20000 nM in [6] and greater than 20000 nM in [7]. For the same compound, the clearance in [11] worked out at 17 mL/min/kg. Further, the Vd in series [12] is 7.2 L/kg. Also, in series [13], the bioavailability amounted to 28%. The compound also registered a Cmax in [15] of 242 nM. This compound showed a half-life in series [14] of 5.5 h.

In series [1], `CN(C)CCOc1cc(-c2cn[nH]c2)ccc1NC(=O)C1NCCc2ccccc21` (stereo unspecified) yielded a half-life of 0.233 h.

Turning to `CN(C)CCOc1cc(-c2cn[nH]c2)c(F)cc1NC(=O)[C@H]1Cc2ccccc2CN1`, the inhibition at 10 µM in series [2] came to 62%; in [4], 77%; in [8], 18%; in series [9] it was 31%. For the same compound, the IC50 in series [3] was 333 nM; in series [5] it was 33 nM; in [6] it was greater than 20000 nM; in series [7], greater than 20000 nM. Moreover, the half-life is 0.75 h in [1] and 2.7 h in series [14]. For the same compound, the clearance in [11] came out at 106 mL/min/kg. The compound also gave a Vd in series [12] of 24 L/kg. In series [13], the bioavailability was found to be 16%. Further, the Cmax in [15] is 18 nM.

As to `COCCOc1cc(-c2cn[nH]c2)ccc1NC(=O)[C@H]1Cc2cc(OC)ccc2CN1`, the half-life in series [1] is 0.717 h.

Compound `COc1ccc2c(c1)C[C@H](C(=O)Nc1ccc(-c3c[nH]nc3C)cc1SCCN(C)C)NC2` yielded a half-life in [1] of 0.183 h.

As to `COc1cccc2c1CNC(C(=O)Nc1ccc(-c3cn[nH]c3)cc1OCCN(C)C)C2` (racemic), inhibition in series [10] was half-maximal at 261 nM (IC50).

In series [1], `NC(Cc1ccc(Cl)cc1)C(=O)Nc1ccc(-c2cn[nH]c2)cc1` (stereo unspecified) had a half-life of 1.12 h.
